From US6994981B2, “Modulators of paraptosis and related methods” (The Buck Institute, priority 2002, dated 2006)
Counter-ions that a name gives are not always drawn. One block for each molecule: values may come before it. Starred links: 1 amine or outer side, 2 acyl side, 3 side chain; linkers in the order of their positions; H or OH if unused. Positions of bridges follow the written chain, without caps; N, C: chain ends. Non-standard residues stand in square brackets, D forms with d. Residues, ends and D or L forms follow the SMILES beside them. Chains are numbered I, II in the order given. No end group written: not given here. Actinocin(9to1) = Cc1c2oc3c(C)ccc(C(=O)[*:1])c3nc-2c(C(=O)[*:2])c(N)c1=O; NMeV = CN[C@H](C(=O)O)C(C)C; Sar = CNCC(=O)O

How the values were obtained:
[1] = system: IGFIR-IC transfected 293T cells; test: Inhibition of IGFIR-IC induced paraptosis in transfected 293T cells, LDH assay; type: cell-based, human; conditions: added at the time of transfection
Method: Paraptosis was induced in 293T cells by expressing the intracellular domain of the insulin-like growth factor I receptor (IGFIR-IC) in these cells using transient transfection as described above.
(§1) Test compounds were added to IGFIR-IC transfected 293T cells at the time of transfection.
The TRAF2 dominant negative mutant contains a deletion of the amino terminal 271 amino acids of the protein. The ratio of IGFIR-IC:AIP1 and IGFIR-IC:TRAF2DN was 1:3. […] Antisense oligonucleotide constructs for JNK1 or JNK2 (50–100 nM) were transfected into 293T cells one day before transfection with the IGFIR-IC construct. For all inhibition assays, cell viability was measured using the LDH assay.

[2] = system: paraptosis induced by caspase 7, caspase 8 or caspase 9; test: Inhibition of paraptosis induced by caspases; type: cell-based
Method: as §1

[3] = system: striatal, cortical, and hippocampal neurons; test: SP-induced cell death in primary striatal, cortical and hippocampal neurons, trypan blue viability and staining; type: cell-based, rat; conditions: for effect on neuronal cell death in response to SP: added 30 min before SP: 10 μM PD 98059, 50 nM Calphostin C, 10 μM Rp-8-Br-cAMPS; for effect on SP-induced neuronal cell death: 5 nM L-732,138, 1 nM L-733,060; for effect on SP-induced neuronal cell death / effect on SP-induced cell death: added at the same time as SP; for effect on SP-induced cell death: 1 μg/ml
Method: Rat neuronal primary cell cultures were also used to assay for inducers and inhibitors of paraptosis. Briefly, primary striatal, cortical and hippocampal cultures were prepared from 17-day-old Sprague-Dawley rat embryos (B&K). The tissue was dissected, minced and trypsinized for five minutes using 0.25% trypsin (Cell Grow). After the addition of 10% horse serum (Life Technologies) to inhibit the trypsin, the cell suspension was triturated 15–20 times with a 10 ml syringe and centrifuged for five minutes at 800×g. The pellet was resuspended in MEM-PAK (UCSF Cell Culture facility), supplemented with 2.02 gm glucose, 2 mM GLUTAMAX™ (Life Technologies) and penicillin/streptomycin (100 U/ml). The suspension was filtered through a […] cell strainer and the final culture medium contained 5% horse serum. Subsequently, 3-4×10^5 cells per Cm^2 were seeded onto either poly-D-lysine precoated 8-well chamber slides (Becton-Dickson Labware) or 96 well plates precoated with […] of poly-D-lysine (Sigma) in water. After 30 minutes of incubation time, unattached cells were removed together with the medium and replaced with glucose enriched MEM-PAK plus 5% horse serum. The cultures were then incubated at 37° C. in 95% air 5% carbon dioxide with 95% humidity. Cultures were used for experiments between day 1 and day 7 when glial contamination was at a minimum.
Primary neuronal cells were prepared as described in Example I. SP (SIGMA) at a concentration of 0.1 nM–100 μM was added 24–48 hrs after seeding, in the presence of 2.5% horse serum. When the cultures were maintained for more than 5 days, 10 μM cytosine arabinoside was added for 24 hours, beginning 3 days after plating the cells. Viability was quantified by trypan blue staining of the total cell population.
The following compounds were added at the same time as SP in the indicated experiments: 5 nM L-732, 138; 1 nM L-733,060; 1 μg/ml Actinomycin D or 1 μg/ml Cycloheximide. All of these compounds were obtained from SIGMA. The caspase inhibitors zVAD.fmk and BAF were added at 50 μM and obtained from Enzyme System Products, Livermore, Calif.
Either neuronal primary cultures or human embryonic kidney 293T cells were fixed with 4% paraformaldehyde and stained with 0.5 μg/ml DAPI (Molecular Probes) or Hoechst(SIGMA). […]
The protein kinase inhibitors were added 30 min before SP exposure at the following concentrations: 10 μM Rp-8-Br-cAMPS (adenosin 3′,5′-cyclic monophosphorothioate, 8-bromo-, Rp-isomer, sodium salt) which is a PKA inhibitor; 50 nM Calphostin C, which is a PKC inhibitor; 10 μM PD 98059 which is a MAPKK (MEK) inhibitor. These compounds were obtained from Calbiochem. Viability was quantified by trypan blue staining of the total cell population.

293T cells = test: Induction of paraptosis in 293T cells, LDH cell death assay; type: cell-based, human; conditions: for induction of paraptosis when expressed: pcDNA3 construct transiently transfected into 293T cells
Method: Human embryonic kidney 293T cell line cells were used to assay for inducers and inhibitors of paraptosis. These cells were cultured in high glucose DMEM (Life Technologies) supplemented with 10% FBS (Sigma) and 1% penicillin/streptomycin (Life Technologies). The cultures were incubated at 37° C. in 95% air 5% carbon dioxide with 95% humidity.
Subsequently, compounds were added to 293T cells and/or rat neuronal primary cell culture cells in order to determine if the compounds could induce paraptosis. Cell death was assayed using the lactate dehydrogenase (LDH) assay, in which the relative amount of enzyme released from dying cells in the medium is measured by following the disappearance of nicotinamide adenine dinucleotide, reduced form (NADH) in the following reaction: pyruvate+NADH <−>NAD^++ lactate. Briefly, 50 μl of culture medium for either 293T cells or 100 μl of culture medium for neuronal primary culture were dispensed in a 96 well plate to which 100 μl of a solution consisting of 5 mg of NADH dissolved in 20 ml of PBS and 0.5 ml of 100 mM NaPyruvate. NADH disappearance was assessed by kinetic photmetric readings at a 340 nm wavelength at 19 minute intervals over a period of 2 hours and 30 minutes.
Constructs of pcDNA3 containing procaspase-7 or procaspase-8 were transiently transfected into 293T cells using Lipofect-Amine (GIBCO-BRL) according to the manufacturer's instructions. Briefly, 1×10^6 293T cells were seeded in 6 cm dishes, and transfected the next day using a ratio of DNA:Lipofect-Amine of 1 μg:5 μl. Transfection efficiency was 60–80% for 293T cells, as determined by X-gal staining after transfection of a β-galactosidase construct.

[4] = system: caspases, calpains, proteasome; test: Protease activation during SP-induced cell death, substrate hydrolysis in cytosolic extracts of NK1R-transfected 293T cells; type: biochemical, human; conditions: added to cytosolic extract of NK1R-transfected 293T cells
Method: Preparation of cell-free extract for kinetic studies: 293T cells seeded at the density of 2 million cells per 10 cm dish were transfected with NK1R cDNA using Lipofectamine 2000 (Gibco) according the instructions provided by the manufacturer. After 24 hr 10 nM SP was added to half of the culture dishes. At 24 hr later the cells were washed with ice cold PBS and collected with a cell scraper. The cells pelleted at 700×g for 4 min were resuspended in cell lysis buffer at pH 7.4 containing 1 mM dithiothreitol at a ratio of 1:1 (v/v). After 30 min on ice the swelled cells were disrupted with 20 strokes using a 27 gauge needle and further spun at 16,000×g for 30 min. The pellet was discarded and the supernatant which represents the cytosolic fraction was aliquoted and stored at −80° C. or used in the kinetic studies. The protein concentration was determined using the Bradford assay (Pierce).
For kinetic studies, the proteolytic activities were followed fluorometrically by monitoring AFC or AMC release from 100 μM of the corresponding substrates (Enzyme Systems Products): Caspase-1 like, Ac-YVAD-AFC; caspase-2, Ac-VDVAD-AFC; caspases-3 like, Ac-DEVD-AFC; caspase-6, Ac-VEID-AFC; caspase-8, Ac-IETD-AFC; caspase-9, Ac-LEHD-AFC. Calpain activity was monitored with 100 μM Suc-LY-AFC (succinyl-Leu-Tyr-7-amino-4-methylcoumarin, Enzyme Systems Products) at 5 μM and 5 mM CaCl2. The chymotrypsin activity of the proteasome was followed with 100 μM Suc-LLVY-AFC (succinyl-Leu-Leu-Val-Tyr-7-amino-4-methylcoumarin, Enzyme Systems Products), and cathepsins were assayed using 20 μM Z-FR-AMC (Benzyloxycarbonyl-Phe-Arg-7-amino-4-methylcoumarin, Bachem). A 10 μl aliquot of extract in the presence or absence of SP was added to 90 μl of substrate at the appropriate concentration and pH. The reaction was continuously monitored during 30 min and 37° C. in a fluorescence microplate reader (Molecular Devices). The instrument was set at excitation and emission wavelengths of 405 and 510 for AFC releasing group, and 370 and 460 nm, for AMC releasing group, respectively. The steady-state hydrolysis rates were obtained from the linear part of the curves.

Molecule: O=S(=O)(NCCNC/C=C/c1ccc(Br)cc1)c1cccc2cnccc12 [H89]
concentration able to inhibit IGFIR-IC induced paraptosis [1]: 10 to 20 µM

inhibition of paraptosis induced by caspase 8 [2]: able to inhibit paraptosis | inhibition of paraptosis induced by caspase 9 [2]: able to inhibit paraptosis
Molecule: c1cnc2c(c1)ccc1cccnc12 [1–10-phenantroline]
concentration able to inhibit IGFIR-IC induced paraptosis [1]: 0.05 µM

Molecule: D form of SP: D isomer of substance P ([dR][dP][dK][dP][dQ][dQ][dF][dF]G[dL][dM]; ends and bridges not checked)
effect of SP isomer on neuronal cell death ([3]; L or D isomer): no effect on cell death

Molecule: Tumor Necrosis Factor-α
concentration at which found to induce paraptosis (293T cells; 293T cells): 1 to 10 ng/mL

Molecule: Calphostin C
effect on neuronal cell death in response to SP [3]: no protective effect

Molecule: FC(F)(F)c1cc(CO[C@H]2CCCN[C@H]2c2ccccc2)cc(C(F)(F)F)c1 [L-733,060]
effect on SP-induced neuronal cell death [3]: inhibited SP-induced cell death

Molecule: Cc1c2oc3c(C)ccc(C(=O)N[C@@H]4C(=O)N[C@H](C(C)C)C(=O)N5CCC[C@H]5C(=O)N(C)CC(=O)N(C)[C@@H](C(C)C)C(=O)O[C@@H]4C)c3nc-2c(C(=O)N[C@@H]2C(=O)N[C@H](C(C)C)C(=O)N3CCC[C@H]3C(=O)N(C)CC(=O)N(C)[C@@H](C(C)C)C(=O)O[C@@H]2C)c(N)c1=O [actinomycin D] (I: T[dV]P[Sar][NMeV] / II: T[dV]P[Sar][NMeV]; ester I:1-I:C, II:1-II:C; linker I:N-II:N via Actinocin(9to1))
effect on SP-induced cell death [3]: prevented

Molecule: neurokinin A: NK1R agonist that does not exhibit mitochondrial toxicity (HKTDSFVGLM; ends and bridges not checked; UniProt P20366 98-107, looked up)
induction of cell death by NK1R agonists ([3]; compared with SP): able to induce cell death as well as SP

Molecule: CC(=O)N[C@@H](Cc1c[nH]c2ccccc12)C(=O)OCc1cc(C(F)(F)F)cc(C(F)(F)F)c1 [L-732,138]
effect on SP-induced neuronal cell death [3]: inhibited SP-induced cell death

Molecule: C[C@@H]1C[C@@H]([C@H](O)CC2CC(=O)NC(=O)C2)C(=O)[C@@H](C)C1 [cyclohexamide]
effect on SP-induced cell death [3]: prevented

Molecule: Nc1ncnc2c1nc(Br)n2C1OC2COP(O)(=S)OC2C1O (single isomer, unassigned) [Rp-8-Br-cAMPS, adenosin 3′,5′-cyclic monophosphorothioate, 8-bromo-, Rp-isomer, sodium salt]
effect on neuronal cell death in response to SP [3]: no protective effect

Molecule: granzyme B: serine protease that activates procaspase-3
increase of DEVDase activity [4]: 7 fold

B1: procaspase-7: procaspase-7 expressed in 293T cells from a pcDNA3 construct (protein, UniProt P55210 2-303, looked up)
pro-form: ADDQGCIEEQGVEDSANEDSVDAKPDRSSFVPSLFSKKKKNVTMRSIKTTRDRVPTYQYNMNFEKLGKCIIINNKNFDKVTGMGVRNGTDKDAEALFKCFRSLGFDVIVYNDCSCAKMQDLLKKASEEDHTNAACFACILLSHGEENVIYGKDGVTPIKDLTAHFRGDRCKTLLEKPKLFFIQACRGTELDDGIQADSGPINDTDANPRYKIPVEADFLFAYSTVPGYYSWRSPGRGSWFVQALCSILEEHGKDLEIMQILTRVNDRVARHFESQSDDPHFHEKKQIPCVVSMLTKELYFSQ
modifications: pro-form
notes: procaspase-7 expressed in 293T cells from a pcDNA3 construct
induction of paraptosis when expressed (293T cells): able to induce paraptosis

B2: procaspase-8: procaspase-8 expressed in 293T cells from a pcDNA3 construct (protein, UniProt Q14790 1-479, looked up)
pro-form: MDFSRNLYDIGEQLDSEDLASLKFLSLDYIPQRKQEPIKDALMLFQRLQEKRMLEESNLSFLKELLFRINRLDLLITYLNTRKEEMERELQTPGRAQISAYRVMLYQISEEVSRSELRSFKFLLQEEISKCKLDDDMNLLDIFIEMEKRVILGEGKLDILKRVCAQINKSLLKIINDYEEFSKERSSSLEGSPDEFSNGEELCGVMTISDSPREQDSESQTLDKVYQMKSKPRGYCLIINNHNFAKAREKVPKLHSIRDRNGTHLDAGALTTTFEELHFEIKPHDDCTVEQIYEILKIYQLMDHSNMDCFICCILSHGDKGIIYGTDGQEAPIYELTSQFTGLKCPSLAGKPKVFFIQACQGDNYQKGIPVETDSEEQPYLEMDLSSPQTRYIPDEADFLLGMATVNNCVSYRNPAEGTWYIQSLCQSLRERCPRGDDILTILTEVNYEVSNKDDKKNMGKQMPQPTFTLRKKLVFPSD
modifications: pro-form
notes: procaspase-8 expressed in 293T cells from a pcDNA3 construct
induction of paraptosis when expressed (293T cells): able to induce paraptosis
